Calls of active or inactive are those of the source. The rule behind the calls is not given here.
Experiments:
[1] = Inhibition of HIV1 SF162 gp120 binding to CD4 assessed as inhibition of CD4 expressing african green monkey BSC1 cells fusion to CCR5 expressing mouse NIH3T3 cells after 2.5 hrs by beta-galactosidase assay; type: cell-based, Human immunodeficiency virus 1
[2] = Inhibition of HIV1 LAV gp120 binding to CD4 assessed as inhibition of CD4 expressing african green monkey BSC1 cells fusion to CXCR4 expressing mouse NIH3T3 cells after 2.5 hrs by beta-galactosidase assay; type: cell-based, Human immunodeficiency virus 1
NIH3T3 [3] = test: Inhibition of HIV1 SF162 gp120 binding to CD4 assessed as inhibition of CD4 expressing african green monkey BSC1 cells fusion to CCR5 expressing mouse NIH3T3 cells treated after 15 to 90 mins of fusion measured after 2.5 hrs by beta-galactosidase assay; type: cell-based; settings: Human immunodeficiency virus 1
NIH3T3 [4] = test: Inhibition of HIV1 LAV gp120 binding to CD4 assessed as inhibition of CD4 expressing african green monkey BSC1 cells fusion to CXCR4 expressing mouse NIH3T3 cells treated after 15 to 90 mins of fusion measured after 2.5 hrs by beta-galactosidase assay; type: cell-based; settings: Human immunodeficiency virus 1

Compound	IC50 [1]	IC50 [2]	Activity (NIH3T3 [3])	Activity (NIH3T3 [4])
CC[C@H]1CCCC[C@@]2(C[C@@H]3CC[C@@H]4[C@H](C(=O)OCCCCCCCCCCCCCCCC(=O)N(CCCN)C[C@@H](O)CCN)[C@]5(CCC[C@@H](C)O5)N=C(N2)N34)O1 [CRAMBESCIDIN 800]	1 µM	1 µM	inactive	inactive
CC[C@H]1C=CCC[C@@]2(C[C@@H]3CC[C@@H]4[C@H](C(=O)OCCCCCCCCCCCCCCCCCC(=O)N(CCCN)CCCC(N)=O)[C@]5(CCC[C@@H](C)O5)N=C(N2)N34)O1 [CRAMBESCIDIN 826]	1 µM	1 µM	–	–
CCCCCCCCCCCc1nc(=N)n2c(c1C(=O)OCCCCNC(=N)N)CCC2 [DEHYDROCRAMBINE A]	35 µM	35 µM	–	–
CC[C@H]1C=CCC[C@@]2(C[C@@H]3CC[C@@H]4[C@H](C(=O)OCCCCCCCCCCCCCCCC5=NCCCN5CC(O)CCN)[C@]5(CCC[C@@H](C)O5)N=C(N2)N34)O1 (stereo not given in full) [FROMIAMYCALIN]	1 µM	1 µM	–	–

Source: ChEMBL document CHEMBL1147251, “Crambescidin 826 and dehydrocrambine A: new polycyclic guanidine alkaloids from the marine sponge Monanchora sp. that inhibit HIV-1 fusion” (J Nat Prod, 2003)
